From patent US20250042889A1, “3CLPRO PROTEASE INHIBITOR” (SHANGHAI QILU PHARMACEUTICAL RESEARCH AND DEVELOPMENT …, priority 2021, published 2025)
Like-named read-outs stand apart in the source and are kept apart here.

Molecular target: SARS-COV-2 3CLpro/Mpro protease (Severe acute respiratory syndrome coronavirus 2 (2019-nCoV) (SARS-CoV-2), UniProt P0DTD1)
Assay: Inhibitory effect on SARS-COV-2 3CLpro/Mpro protease by fluorescence resonance energy transfer
Format: biochemical
Conditions: activity intervals A-D
[1] = read-out: IC50 (nM), Inhibition on SARS-CoV-2 3CLpro/Mpro protease

Compound	IC50 [1] [nM]	IC50 (IC50 (nM), Inhibition on SARS-CoV-2 3CLpro/Mpro protease) [nM]
CNc1cncc(C(=O)N2CCC[C@@H](Nc3c(C(=O)N4C[C@@H](C)O[C@H](C)C4)cc(Br)cc3[N+](=O)[O-])C2)c1 [Example 212]	10 to 50	
CNc1cncc(C(=O)N2CCC[C@@H](Nc3c(C(=O)N4C[C@H](C)O[C@@H](C)C4)cc(Br)cc3[N+](=O)[O-])C2)c1 [Example 213]	10 to 50	
C[C@@H]1CN(C(=O)c2cc(Br)cc([N+](=O)[O-])c2N[C@@H]2COCC[C@@H]2NC(=O)c2cncc3ccccc23)C[C@H](C)O1 [Example 214]	10 to 50	
COCCN1CCN(C(=O)c2cc(Br)cc([N+](=O)[O-])c2N[C@@H]2COCC[C@@H]2NC(=O)c2cncc3cc(Cl)ccc23)CC1 [Example 215]	10 to 50	
CC(=O)Nc1cncc(C(=O)N2CCC[C@@H](Nc3c(C(=O)N4CCCCC4)cc(Br)cc3[N+](=O)[O-])C2)c1 [Example 216]	10 to 50	
CNc1cncc(C(=O)N[C@H]2CCCC[C@H]2Nc2c(C(=O)N3C[C@H](C)O[C@@H](C)C3)cc(Br)cc2[N+](=O)[O-])c1 [Example 217]	50 to 100	
COCCN1CCN(C(=O)c2cc(Br)cc([N+](=O)[O-])c2N[C@@H]2COCC[C@@H]2NC(=O)c2cncc3ccccc23)CC1 [Example 218]	10 to 50	
CNc1cncc(C(=O)N2CCC[C@@H](Nc3c(C(=O)N4CCO[C@@H](C)C4)cc(Br)cc3[N+](=O)[O-])C2)c1 [Example 219]	10 to 50	
C[C@@H]1CN(C(=O)c2cc(Br)cc([N+](=O)[O-])c2N[C@H]2CN(C(=O)c3cncc(Br)c3)CC2(C)C)C[C@@H](C)O1 [Example 220]	50 to 100	
CNc1cncc(C(=O)N[C@H]2CCOC[C@H]2Nc2c(C(=O)N3CCN(CCOC)CC3)cc(Br)cc2[N+](=O)[O-])c1 [Example 221]	10 to 50	
CNc1cncc(C(=O)N[C@H]2CCCC[C@H]2Nc2c(C(=O)N3CCN(CCOC)CC3)cc(Br)cc2[N+](=O)[O-])c1 [Example 222]	10 to 50	
CNc1cncc(C(=O)N[C@H]2CCCC[C@H]2Nc2c(C(=O)N3C[C@@H](C)O[C@H](C)C3)cc(Br)cc2[N+](=O)[O-])c1 [Example 223]	10 to 50	
CNc1cncc(C(=O)N[C@H]2CCOC[C@H]2Nc2c(C(=O)N3C[C@H](C)O[C@@H](C)C3)cc(Br)cc2[N+](=O)[O-])c1 [Example 224]	10 to 50	
C[C@H]1CN(C(=O)c2cc(Br)cc([N+](=O)[O-])c2N[C@H]2CN(C(=O)c3cncc(Br)c3)CC2(C)C)C[C@H](C)O1 [Example 225]	< 10	
CNc1cncc(C(=O)N[C@H]2CCOC[C@H]2Nc2c(C(=O)N3CCC[C@@H](C)C3)cc(Br)cc2[N+](=O)[O-])c1 [Example 226]	10 to 50	
COCCN1CCN(C(=O)c2cc(Br)cc([N+](=O)[O-])c2N[C@@H]2CCOC[C@@H]2NC(=O)c2cncc3ccccc23)CC1 [Example 227]	10 to 50	
C[C@@H]1CN(C(=O)c2cc(Br)cc([N+](=O)[O-])c2N[C@@H]2COCC[C@@H]2NC(=O)c2cncc3cc(Cl)ccc23)C[C@H](C)N1 [Example 228]	10 to 50	
CNc1cncc(C(=O)N2CCC[C@@H](Nc3c(C(=O)N4CCC5(CCOC5)CC4)cc(Br)cc3[N+](=O)[O-])C2)c1 [Example 230]	< 10	
CNc1cncc(C(=O)N[C@H]2CCCC[C@H]2Nc2c(C(=O)N3CCO[C@@H](C)C3)cc(Br)cc2[N+](=O)[O-])c1 [Example 231]	10 to 50	
CNc1cncc(C(=O)N2CCC[C@@H](Nc3c(C(=O)N4CC5COCC5C4)cc(Br)cc3[N+](=O)[O-])C2)c1 (some centres unmarked) [Example 232]	10 to 50	

Compound	IC50 [1] [nM]	IC50 (IC50 (nM), Inhibition on SARS-CoV-2 3CLpro/Mpro protease) [nM]
CNc1cncc(C(=O)N2CCC[C@@H](Nc3c(C(=O)N4C[C@@H](C)N(CCOC)[C@@H](C)C4)cc(Br)cc3[N+](=O)[O-])C2)c1 [Example 233]	50 to 100	
CNc1cncc(C(=O)N[C@H]2CCOC[C@H]2Nc2c(C(=O)N3CCC[C@H](C)C3)cc(Br)cc2[N+](=O)[O-])c1 [Example 234]	10 to 50	
CNc1cncc(C(=O)N2CCC[C@@H](Nc3c(C(=O)N4CCN(C5CCOCC5)CC4)cc(Br)cc3[N+](=O)[O-])C2)c1 [Example 235]	10 to 50	
CNc1cncc(C(=O)N2CCC[C@@H](Nc3c(C(=O)N4CCC5(CC4)COC5)cc(Br)cc3[N+](=O)[O-])C2)c1 [Example 236]	10 to 50	
CNc1cncc(C(=O)N[C@H]2CCCC[C@H]2Nc2c(C(=O)N3CCO[C@H](C)C3)cc(Br)cc2[N+](=O)[O-])c1 [Example 237]	10 to 50	
CNc1cncc(C(=O)N2CCC[C@@H](Nc3c(C(=O)N4CCN(CCOC)[C@H](C)C4)cc(Br)cc3[N+](=O)[O-])C2)c1 [Example 238]	10 to 50	
CNc1cncc(C(=O)N2CCC[C@@H](Nc3c(C(=O)N4CCC[C@H](OC)C4)cc(Br)cc3[N+](=O)[O-])C2)c1 [Example 239]	10 to 50	
CNc1cncc(C(=O)N2CCC[C@@H](Nc3c(C(=O)N4CCC(O)(C(F)(F)F)CC4)cc(Br)cc3[N+](=O)[O-])C2)c1 [Example 240]	10 to 50	
CNc1cncc(C(=O)N2CCC[C@@H](Nc3c(C(=O)N4CCC(C)(O)CC4)cc(Br)cc3[N+](=O)[O-])C2)c1 [Example 241]	10 to 50	
CNc1cncc(C(=O)N2CCC[C@@H](Nc3c(C(=O)N4C[C@H](C)N(CCOC)[C@@H](C)C4)cc(Br)cc3[N+](=O)[O-])C2)c1 [Example 242]	10 to 50	
CNc1cncc(C(=O)N2CCC[C@@H](Nc3c(C(=O)N4CC[C@H](OC)C4)cc(Br)cc3[N+](=O)[O-])C2)c1 [Example 244]	10 to 50	
CNc1cncc(C(=O)N2C[C@H](Nc3c(C(=O)N4CCCCC4)cc(Br)cc3[N+](=O)[O-])C(C)(O)C2)c1 (some centres unmarked) [Example 245]	50 to 100	
CC1(O)CN(C(=O)c2cncc(Br)c2)C[C@@H]1Nc1c(C(=O)N2CCCCC2)cc(Br)cc1[N+](=O)[O-] (some centres unmarked) [Example 246]	10 to 50	
CNc1cncc(C(=O)N2CCC[C@@H](Nc3c(C(=O)N4CCN(CCOC)[C@@H](C)C4)cc(Br)cc3[N+](=O)[O-])C2)c1 [Example 247]	10 to 50	
CNc1cncc(C(=O)N2CCC[C@@H](Nc3c(C(=O)N4CCC(C)CC4)cc(Br)cc3[N+](=O)[O-])C2)c1 [Example 248]	10 to 50	
COCCN1CCN(C(=O)c2cc(Br)cc([N+](=O)[O-])c2N[C@@H]2CCCN(C(=O)[C@H]3CC(=O)N[C@@H](C)C3)C2)CC1 [Example 249]	10 to 50	
CNc1cncc(C(=O)N2CCC[C@@H](Nc3c(C(=O)N4CCC5(CCOCC5)CC4)cc(Br)cc3[N+](=O)[O-])C2)c1 [Example 250]	10 to 50	
CNc1cncc(C(=O)N2CCC[C@@H](Nc3c(C(=O)N4C[C@H](C)C[C@H](C)C4)cc(Br)cc3[N+](=O)[O-])C2)c1 [Example 251]	50 to 100	
CNc1cncc(C(=O)N2CCC[C@@H](Nc3c(C(=O)N4CCC(C)(C)CC4)cc(Br)cc3[N+](=O)[O-])C2)c1 [Example 252]	10 to 50	
CNc1cncc(C(=O)N2CCC[C@@H](Nc3c(C(=O)N4CCC[C@@H](C)C4)cc(Br)cc3[N+](=O)[O-])C2)c1 [Example 253]	50 to 100	

Compound	IC50 [1] [nM]	IC50 (IC50 (nM), Inhibition on SARS-CoV-2 3CLpro/Mpro protease) [nM]
C[C@@H]1CN(C(=O)c2cc(Br)cc([N+](=O)[O-])c2N[C@@H]2CCCN(C(=O)[C@H]3CC(=O)N[C@@H](C)C3)C2)C[C@H](C)O1 [Example 254]	10 to 50	
CNc1cncc(C(=O)N2CCC[C@@H](Nc3c(C(=O)N4CCC(F)(F)C4)cc(Br)cc3[N+](=O)[O-])C2)c1 [Example 255]	10 to 50	
CNc1cncc(C(=O)N2CCC[C@@H](Nc3c(C(=O)N4CCC[C@H](C)C4)cc(Br)cc3[N+](=O)[O-])C2)c1 [Example 256]	10 to 50	
CNc1cncc(C(=O)N2CCC[C@@H](Nc3c(C(=O)N4C[C@@H](C)C[C@H](C)C4)cc(Br)cc3[N+](=O)[O-])C2)c1 [Example 257]	10 to 50	
CNc1cncc(C(=O)N2CCC[C@@H](Nc3c(C(=O)N4CC(C)CC(O)C4)cc(Br)cc3[N+](=O)[O-])C2)c1 (some centres unmarked) [Example 258]	10 to 50	
CNc1cncc(C(=O)N[C@H]2CCOC[C@H]2Nc2c(C(=O)N3C[C@@H](C)O[C@H](C)C3)cc(Br)cc2[N+](=O)[O-])c1 [Example 259]	10 to 50	
CCNc1cncc(C(=O)N2CCC[C@@H](Nc3c(C(=O)N4CCCCC4)cc(Br)cc3[N+](=O)[O-])C2)c1 [Example 260]	10 to 50	
CSc1cncc(C(=O)N2CCC[C@@H](Nc3c(C(=O)N4CCCCC4)cc(Br)cc3[N+](=O)[O-])C2)c1 [Example 261]	10 to 50	
C[C@H]1C[C@H](C)CN(C(=O)c2cc(Br)cc([N+](=O)[O-])c2N[C@@H]2CCCN(C(=O)[C@H]3CC(=O)N[C@@H](C)C3)C2)C1 [Example 262]	10 to 50	
CNc1cncc(C(=O)N2CCC[C@@H](Nc3c(C(=O)N4CC(N)CC(F)(F)C4)cc(Br)cc3[N+](=O)[O-])C2)c1 (some centres unmarked) [Example 263]	10 to 50	
O=C1C[C@H](C(=O)N2CCC[C@@H](Nc3c(C(=O)N4CCCCC4)cc(Br)cc3[N+](=O)[O-])C2)c2ccccc2N1 [Example 264]	10 to 50	
O=C1C[C@@H](C(=O)N2CCC[C@@H](Nc3c(C(=O)N4CCCCC4)cc(Br)cc3[N+](=O)[O-])C2)c2ccccc2N1 [Example 265]	10 to 50	
CNc1cncc(C(=O)N2CCC[C@@H](Nc3c(C(=O)N4CC5CC(C4)O5)cc(Br)cc3[N+](=O)[O-])C2)c1 [Example 266]		10 to 50
CNc1cncc(C(=O)N2CCC[C@@H](Nc3c(C(=O)N4CCc5ccsc5C4)cc(Br)cc3[N+](=O)[O-])C2)c1 [Example 267]	10 to 50	
CNc1cncc(C(=O)N2CCC[C@@H](Nc3c(C(=O)N4CCC5(CCCO5)CC4)cc(Br)cc3[N+](=O)[O-])C2)c1 [Example 268]	< 10	
CNc1cncc(C(=O)N2CCC[C@@H](Nc3c(C(=O)N4CC5CCC(C4)O5)cc(Br)cc3[N+](=O)[O-])C2)c1 [Example 269]	10 to 50	
CNc1cncc(C(=O)N2CCC[C@@H](Nc3c(C(=O)N4CCC5(CCCCO5)CC4)cc(Br)cc3[N+](=O)[O-])C2)c1 [Example 270]	10 to 50	
CNc1cncc(C(=O)N2CCC[C@@H](Nc3c(C(=O)N4Cc5cccnc5C4)cc(Br)cc3[N+](=O)[O-])C2)c1 [Example 271]	10 to 50	
CNc1cncc(C(=O)N2CCC[C@@H](Nc3c(C(=O)N4CCC5(CCNCC5)CC4)cc(Br)cc3[N+](=O)[O-])C2)c1 [Example 272]	10 to 50	
